Source: patent US11993571B2, “Indole derivatives as efflux pump inhibitors” (RUTGERS, THE STATE UNIVERSITY OF NEW JERSEY, priority 2017, dated 2024)
Counter-ions that a name gives are not always drawn.

Columns and labels:
[1] = tested on: P. aeruginosa [ATCC 27853]; assay: Mouse septicemia model of infection; assay type: in vivo, Swiss Webster female mice; conditions: experiment #512, cefepime, 10 mg/ml b.i.d., 250 ul
Experimental: A general method for the in vivo assessment of bacterial EPIs is complicated by the fact that that both the antibiotic and the EPI need to be present for synergy to be achieved. A general method was discovered that has proven to be effective in establishing the relative efficacy of bacterial EPIs in a mouse septicemia model. The bacterial EPI is administered initially intravenously to mice with septicemia, followed 5 minutes later by the intravenous administration or oral administration of the antibiotic. A second administration of the EPI is then administered subcutaneously after an additional 5 minutes to act as a booster, followed by the final administration of the antibiotic either intravenously or orally after the second administration of the EPI. […] In a few instances, a second regiment of both EPI and antibiotic as administered on day 1 was required after 24 hours to affect cures.
Determination of the in vivo efficacy of bacterial efflux pump inhibitors (EPIs) can be efficiently determined using a mouse septicemia model of infection. The systemic infection is initiated by a 500 ul intraperitoneal injection of an inoculum containing bacteria (such as P. aeruginosa [ATCC 27853]) at a concentration of approximately 5×10^5 cells in 5% mucin in Swiss Webster female mice. […]

[2] = tested on: Pseudomonas aeruginosa ATCC 27853; assay: Standard EPI assay (MIC of levofloxacin or cefepime in absence and presence of the EPI); assay type: cell-based; conditions: P. aeruginosa ATCC 27853
Experimental: (§1) MIC assays were conducted in accordance with Clinical and Laboratory Standards Institute (CLSI) guidelines for broth microdilution.
(§2) The EPI assay for the purposes of these studies represents a MIC assay in which the MIC of the antibiotic against the bacteria is tested in the presence of an experimental efflux pump inhibitor (EPI). […] Using serial dilutions of the EPI, its enhancement of antibiotic activity was then evaluated. […] For the evaluation of the efficacy of an EPI against bacteria that were pre-exposed to an antibiotic, the inoculum of bacteria that used was developed from a bacterial culture isolated as a single colony following exposure at ½ the MIIC of the antibiotic (so as to induce efflux pump expression), was to be used in combination with the EPI.
In our standard EPI assay, the MIC of the test antibiotic is determined in the absence and presence of sub-inhibitory concentrations of the EPI. Initially, the sub-inhibitory concentration used was ½×MIC of the EPI. […] Similar methodology was employed to examine the synergy with Escherichia coli ATCC 25922 in the presence of varied concentrations of these EPIs using clarithromycin as the antibiotic.

P. aeruginosa ATCC 27853 = assay: Intrinsic MIC assay (CLSI broth microdilution); assay type: cell-based; conditions: Pseudomonas aeruginosa, ATCC27853
Experimental: as §1
The intrinsic MIC of the experimental EPIs was tested with the method described. The 2-fold serial dilution begins with 100 μg/mL of tested compound in the first column of the 96-well plates. The following Gram-negative bacterial strains were included in these assays: […]

[3] = tested on: P. aeruginosa ATCC 27853 pre-exposed to cefepime; assay: Pre-exposure bacterial EPI assay; assay type: cell-based, Pseudomonas aeruginosa
Experimental: as §2
The principle underlying this pre-exposure is that exposure of the bacteria to sub-inhibitory concentrations of the test antibiotic will induce expression of efflux pumps, if any, and may represent the scenario in vivo more accurately.

## CC(C)C(N)CC[C@H](N)CNC(=O)c1cc2ccc(-c3ccc(F)cc3)cc2[nH]1 (stereo partly drawn) [Example 6, N-((2S)-2,5-diamino-6-methylheptyl)-6-(4-fluorophenyl)-1H-indole-2-carboxamide dihydrochloride]
[1]; Example 6, 3.0 mg/ml b.i.d.
  % Survival (72 hr) Antibiotic + EPI: 100%
[2]; 6.25 μg/mL of the EPI
  MIC of levofloxacin in the presence of EPI: 0.063 µg/mL
  reduction of the MIC of levofloxacin relative to the absence of EPI: 32 fold
[2]; 12.5 μg/mL of the EPI
  MIC of cefepime in the presence of EPI: 1.0 µg/mL
  decrease of the MIC of cefepime: 2 fold
P. aeruginosa ATCC 27853
  MIC: 25 µg/mL

## NCCC[C@@H](N)CNC(=O)c1cc2ccc(-c3ccc(F)cc3)cc2[nH]1 [Example 20, (R)-5-(6-(4-fluorophenyl)-1H-indole-2-carboxamido)pentane-1,4-diaminium chloride]
[3]; 6.25 μg/mL of the EPI
  MIC of cefepime against cefepime-exposed P. aeruginosa in the presence of EPI: 0.5 µg/mL
  reduction of the MIC of cefepime against cefepime-exposed P. aeruginosa: 8 fold

## CO/N=C(\C(=O)N[C@@H]1C(=O)N2C(C(=O)[O-])=C(C[N+]3(C)CCCC3)CS[C@H]12)c1csc(N)n1 [cefepime, reference compound]
[1]; mice infected with P. aeruginosa
  % Survival (72 hr) Antibiotic Only: 25%
[3]; Pseudomonas aeruginosa, ATCC27853, read-out: MIC of cefepime against P. aeruginosa pre-exposed to cefepime
  MIC: 16 µg/mL

## C[C@H]1COc2c(N3CCN(C)CC3)c(F)cc3c(=O)c(C(=O)O)cn1c23 [levofloxacin, reference compound]
[2]; Pseudomonas aeruginosa, ATCC27853
  MIC: 1 µg/mL
